The source of these data is ChEMBL document CHEMBL3046462, “Synthesis and anti-bacterial activities of some novel pyrazolobenzothiazine-based chalcones and their pyrimidine derivatives” (2012).

Holding throughout (type): functional
Assay [1] relates to Escherichia coli. As to the kind of experiment: Antibacterial activity against Escherichia coli X580 at 2 mg/ml after overnight incubation by hole plate method relative to cephalosporin C.
Assay [2] relates to Escherichia coli. As to the kind of experiment: Antibacterial activity against Escherichia coli X580 at 2 mg/ml after overnight incubation by hole plate method. Particulars: read-out: DIZ.
Assay [3] deals with Staphylococcus aureus. Briefly: Antibacterial activity against Staphylococcus aureus NCTC 6571 at 2 mg/ml after overnight incubation by hole plate method relative to cephalosporin C.
Assay [4] relates to Staphylococcus aureus. Briefly: Antibacterial activity against Staphylococcus aureus NCTC 6571 at 2 mg/ml after overnight incubation by hole plate method. To be noted: read-out: DIZ.

With `COc1ccc(-c2cc(-c3ccc(-n4nc5c(c4C)N(C)S(=O)(=O)c4ccccc4-5)cc3)nc(N)n2)cc1OC`, in the assay with Escherichia coli [1], the “fold change (FC)” value is reported as 4.13. In addition, in the assay with Escherichia coli [2], the zone of inhibition at 2000 µg/mL is 14 mm.

Regarding `COc1ccc(-c2cc(-c3ccc(-n4nc5c(c4C)N(C)S(=O)(=O)c4ccccc4-5)cc3)nc(N)n2)c(OC)c1OC`, the “fold change (FC)” value with Escherichia coli [1] was found to be 19.06. Besides, in the assay with Escherichia coli [2], the zone of inhibition at 2000 µg/mL turned out to be 24 mm.

As for `COc1cc(-c2cc(-c3ccc(-n4nc5c(c4C)N(C)S(=O)(=O)c4ccccc4-5)cc3)nc(N)n2)cc(OC)c1OC`, the “fold change (FC)” value in the assay with Escherichia coli [1] was 3.55. In addition, the zone of inhibition at 2000 µg/mL in the assay on Escherichia coli [2] amounted to 13 mm.

Turning to `Cc1c2c(nn1-c1ccc(-c3cc(-c4ccc([N+](=O)[O-])cc4)nc(N)n3)cc1)-c1ccccc1S(=O)(=O)N2C`, the “fold change (FC)” value in the assay on Escherichia coli [1] amounted to 4.13. The zone of inhibition at 2000 µg/mL in the assay on Escherichia coli [2] worked out at 14 mm.

In the case of `Cc1c2c(nn1-c1ccc(-c3cc(-c4ccccc4)nc(N)n3)cc1)-c1ccccc1S(=O)(=O)N2C`, the “fold change (FC)” value with Escherichia coli [1] stood at 4.13. In addition, the zone of inhibition at 2000 µg/mL in the assay with Escherichia coli [2] amounted to 14 mm.

For the compound `Cc1ccc(-c2cc(-c3ccc(-n4nc5c(c4C)N(C)S(=O)(=O)c4ccccc4-5)cc3)nc(N)n2)cc1`, the “fold change (FC)” value with Escherichia coli [1] was determined as 4.13. Further, the zone of inhibition at 2000 µg/mL with Escherichia coli [2] was found to be 14 mm.

Take `Cc1cc(C)c(-c2cc(-c3ccc(-n4nc5c(c4C)N(C)S(=O)(=O)c4ccccc4-5)cc3)nc(N)n2)c(C)c1`: the “fold change (FC)” value in the assay on Escherichia coli [1] was found to be 4.81. Further, the zone of inhibition at 2000 µg/mL in the assay on Escherichia coli [2] was 15 mm.

As for `Cc1ccc(C(=O)/C=C/c2ccc(-n3nc4c(c3C)N(C)S(=O)(=O)c3ccccc3-4)cc2)cc1`, the “fold change (FC)” value in the assay on Escherichia coli [1] is 3.55. For the same compound, the zone of inhibition at 2000 µg/mL in the assay with Escherichia coli [2] was determined as 13 mm.

Turning to `Cc1cc(C)c(C(=O)/C=C/c2ccc(-n3nc4c(c3C)N(C)S(=O)(=O)c3ccccc3-4)cc2)c(C)c1`, the “fold change (FC)” value in the assay with Escherichia coli [1] amounted to 4.81. Also, the zone of inhibition at 2000 µg/mL in the assay on Escherichia coli [2] came out at 15 mm.

`Cc1c2c(nn1-c1ccc(-c3cc(-c4ccc(F)cc4)nc(N)n3)cc1)-c1ccccc1S(=O)(=O)N2C`: in the assay with Escherichia coli [1], the “fold change (FC)” value was 4.81. For the same compound, the zone of inhibition at 2000 µg/mL with Escherichia coli [2] was determined as 15 mm.

Regarding `Cc1c2c(nn1-c1ccc(-c3cc(-c4ccc(Cl)cc4)nc(N)n3)cc1)-c1ccccc1S(=O)(=O)N2C`, the “fold change (FC)” value with Escherichia coli [1] is listed as 5.61. Further, in the assay with Escherichia coli [2], the zone of inhibition at 2000 µg/mL was determined as 16 mm.

In the case of `Cc1c2c(nn1-c1ccc(-c3cc(-c4cccc(Cl)c4)nc(N)n3)cc1)-c1ccccc1S(=O)(=O)N2C`, the “fold change (FC)” value in the assay on Escherichia coli [1] is on record as 5.61. The zone of inhibition at 2000 µg/mL in the assay with Escherichia coli [2] was 16 mm.

For `Cc1c2c(nn1-c1ccc(-c3cc(-c4ccc(Br)cc4)nc(N)n3)cc1)-c1ccccc1S(=O)(=O)N2C`, the “fold change (FC)” value in the assay with Staphylococcus aureus [3] is listed as 508; with Escherichia coli [1] it was 8.87. Moreover, the zone of inhibition at 2000 µg/mL with Staphylococcus aureus [4] was 17 mm; in the assay on Escherichia coli [2], 19 mm.

On to `Cc1c2c(nn1-c1ccc(-c3cc(-c4cccc(Br)c4)nc(N)n3)cc1)-c1ccccc1S(=O)(=O)N2C`, for which the “fold change (FC)” value in the assay on Escherichia coli [1] is recorded as 4.13. Moreover, the zone of inhibition at 2000 µg/mL in the assay with Escherichia coli [2] came to 14 mm.

As for `COc1ccccc1-c1cc(-c2ccc(-n3nc4c(c3C)N(C)S(=O)(=O)c3ccccc3-4)cc2)nc(N)n1`, the “fold change (FC)” value in the assay on Staphylococcus aureus [3] is 1390; with Escherichia coli [1], 10.34. Besides, the zone of inhibition at 2000 µg/mL turned out to be 22 mm in the assay on Staphylococcus aureus [4] and 20 mm in the assay on Escherichia coli [2].

Take `Cc1c2c(nn1-c1ccc(C(=O)/C=C/c3ccc(F)cc3)cc1)-c1ccccc1S(=O)(=O)N2C`: the “fold change (FC)” value with Escherichia coli [1] is 4.13. Further, in the assay with Escherichia coli [2], the zone of inhibition at 2000 µg/mL amounted to 14 mm.

On to `Cc1c2c(nn1-c1ccc(C(=O)/C=C/c3ccc(Cl)cc3)cc1)-c1ccccc1S(=O)(=O)N2C`, for which the “fold change (FC)” value in the assay on Escherichia coli [1] is recorded as 3.55. Besides, the zone of inhibition at 2000 µg/mL in the assay with Escherichia coli [2] amounted to 13 mm.

Regarding `Cc1c2c(nn1-c1ccc(C(=O)/C=C/c3cccc(Cl)c3)cc1)-c1ccccc1S(=O)(=O)N2C`, the “fold change (FC)” value in the assay on Escherichia coli [1] was determined as 4.81. In addition, the zone of inhibition at 2000 µg/mL in the assay on Escherichia coli [2] turned out to be 15 mm.

On to `Cc1c2c(nn1-c1ccc(C(=O)/C=C/c3ccc(Cl)cc3Cl)cc1)-c1ccccc1S(=O)(=O)N2C`, for which the “fold change (FC)” value with Escherichia coli [1] is on record as 5.61. In addition, the zone of inhibition at 2000 µg/mL in the assay on Escherichia coli [2] was determined as 16 mm.

With `Cc1c2c(nn1-c1ccc(C(=O)/C=C/c3ccc(Br)cc3)cc1)-c1ccccc1S(=O)(=O)N2C`, the “fold change (FC)” value in the assay on Escherichia coli [1] came to 4.81. For the same compound, the zone of inhibition at 2000 µg/mL in the assay with Escherichia coli [2] was found to be 15 mm.

Turning to `Cc1c2c(nn1-c1ccc(C(=O)/C=C/c3cccc(Br)c3)cc1)-c1ccccc1S(=O)(=O)N2C`, the “fold change (FC)” value with Escherichia coli [1] is given as 6.53. In the assay on Escherichia coli [2], the zone of inhibition at 2000 µg/mL was determined as 17 mm.

With `COc1ccccc1/C=C/C(=O)c1ccc(-n2nc3c(c2C)N(C)S(=O)(=O)c2ccccc2-3)cc1`, the “fold change (FC)” value in the assay with Escherichia coli [1] came out at 5.61. Moreover, the zone of inhibition at 2000 µg/mL in the assay with Escherichia coli [2] was 16 mm.

In the case of `COc1ccc(/C=C/C(=O)c2ccc(-n3nc4c(c3C)N(C)S(=O)(=O)c3ccccc3-4)cc2)cc1OC`, the “fold change (FC)” value with Escherichia coli [1] came out at 4.81. Also, the zone of inhibition at 2000 µg/mL in the assay on Escherichia coli [2] came out at 15 mm.

In the case of `COc1ccc(/C=C/C(=O)c2ccc(-n3nc4c(c3C)N(C)S(=O)(=O)c3ccccc3-4)cc2)c(OC)c1OC`, the “fold change (FC)” value in the assay with Escherichia coli [1] is recorded as 4.13. In addition, the zone of inhibition at 2000 µg/mL in the assay with Escherichia coli [2] was found to be 14 mm.

Regarding `Cc1c2c(nn1-c1ccc(C(=O)/C=C/c3ccc([N+](=O)[O-])cc3)cc1)-c1ccccc1S(=O)(=O)N2C`, in the assay with Escherichia coli [1], the “fold change (FC)” value is recorded as 4.81. In addition, in the assay on Escherichia coli [2], the zone of inhibition at 2000 µg/mL worked out at 15 mm.

For `Cc1c2c(nn1-c1ccc(/C=C/C(=O)c3ccc(Cl)cc3)cc1)-c1ccccc1S(=O)(=O)N2C`, in the assay with Escherichia coli [1], the “fold change (FC)” value was determined as 4.13. Moreover, the zone of inhibition at 2000 µg/mL in the assay with Escherichia coli [2] came out at 14 mm.

Consider `Cc1c2c(nn1-c1ccc(/C=C/C(=O)c3ccc(Br)cc3)cc1)-c1ccccc1S(=O)(=O)N2C`, for which, in the assay with Escherichia coli [1], the “fold change (FC)” value came to 5.61. Also, in the assay with Escherichia coli [2], the zone of inhibition at 2000 µg/mL was 16 mm.

With `COc1ccc(C(=O)/C=C/c2ccc(-n3nc4c(c3C)N(C)S(=O)(=O)c3ccccc3-4)cc2)cc1`, in the assay on Escherichia coli [1], the “fold change (FC)” value stood at 4.81. Further, in the assay with Escherichia coli [2], the zone of inhibition at 2000 µg/mL was 15 mm.
